Reference: patent US20100048575A1, “NOVEL TETRACYCLIC INHIBITORS OF CYSTEINE PROTEASES, THE PHARMACEUTICAL COMPOSITIONS THEREOF AND THEIR THERAPEUTIC APPLICATIONS” (priority 2006, published 2010)

Experiments:
Uch-L3 = molecular target: T1, Uch-L3 (Homo sapiens, UniProt P15374); test: UCH-L3 activity assay (Ub-AMC); assay type: biochemical; conditions: 400 nM Ub-AMC, 13 pM enzyme, 30 min pre-incubation, 60 min at 37° C., sigmoidal fit; read-out: Uch-L3 (inhibition of cysteine protease activity)
T1 sequence (P15374 1-230): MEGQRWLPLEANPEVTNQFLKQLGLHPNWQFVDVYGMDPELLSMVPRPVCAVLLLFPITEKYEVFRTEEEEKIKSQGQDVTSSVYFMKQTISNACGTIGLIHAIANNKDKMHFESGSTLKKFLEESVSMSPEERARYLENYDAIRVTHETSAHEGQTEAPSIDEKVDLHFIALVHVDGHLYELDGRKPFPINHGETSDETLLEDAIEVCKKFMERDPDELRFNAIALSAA
Method: Uch-L3 was diluted in USP buffer (50 mM Tris HCl; 0.5 mM EDTA; 5 mM DTT; 0.01% Triton X-100; Bovine Serum Albumin 0.05 mg.ml^−1 pH7.6). Compounds stocks (100 mM) were stored at −20° C. in DMSO. Compounds were tested at the following final concentrations: 100 μM; 33.3 μM; 11.1 μM; 3.7 μM; 1.23 μM; 412 nM; 137 nM; 45.7 nM, 15.2 nM; 5 nM.
Reactions were performed as duplicates in Black LJL 96 well plates (HE microplates; Molecular Devices; 20 μl final reaction volume). The substrate concentration for Uch-L3 was 400 nM Ub-AMC (Boston Biochem). The concentration of the enzyme (Uch-L3) in specificity assays was 13 pM. The concentrations were determined in order to perform specificity assays under initial velocities at fixed substrate concentration. Compounds were pre-incubated with enzymes for 30 minutes at 25° C. Reactions were initiated by addition of substrate to the plates containing the enzymes (+/−compounds) diluted in assay buffer.
Reactions were incubated for 60 minutes at 37° C. Reactions were stopped by adding acetic acid (100 mM final). Readings were performed on a Pherastar Fluorescent Reader (BMG). δ Emission 380 nm; 6 Excitation=460 nm. Data (mean values +/−standard deviation) were analyzed as % of control (no compound) and plotted as percentage versus the Log of the compound concentration using GraphPad (Prism). Data were fitted to a sigmoidal model (variable slope).

USP8 = molecular target: T2, USP8 (Homo sapiens, UniProt P40818); test: USP8 activity assay (Ub-AMC); assay type: biochemical; conditions: 400 nM Ub-AMC, 630 pM enzyme, pH8.8, 30 min pre-incubation, 60 min at 37° C., sigmoidal fit; read-out: USP8 (inhibition of cysteine protease activity)
T2 construct: His tag (from vector pFastBac-HT) (N); made in house; host or cells: insect cells (Sf9 or High Five), baculovirus
T2 sequence (P40818 1-1118): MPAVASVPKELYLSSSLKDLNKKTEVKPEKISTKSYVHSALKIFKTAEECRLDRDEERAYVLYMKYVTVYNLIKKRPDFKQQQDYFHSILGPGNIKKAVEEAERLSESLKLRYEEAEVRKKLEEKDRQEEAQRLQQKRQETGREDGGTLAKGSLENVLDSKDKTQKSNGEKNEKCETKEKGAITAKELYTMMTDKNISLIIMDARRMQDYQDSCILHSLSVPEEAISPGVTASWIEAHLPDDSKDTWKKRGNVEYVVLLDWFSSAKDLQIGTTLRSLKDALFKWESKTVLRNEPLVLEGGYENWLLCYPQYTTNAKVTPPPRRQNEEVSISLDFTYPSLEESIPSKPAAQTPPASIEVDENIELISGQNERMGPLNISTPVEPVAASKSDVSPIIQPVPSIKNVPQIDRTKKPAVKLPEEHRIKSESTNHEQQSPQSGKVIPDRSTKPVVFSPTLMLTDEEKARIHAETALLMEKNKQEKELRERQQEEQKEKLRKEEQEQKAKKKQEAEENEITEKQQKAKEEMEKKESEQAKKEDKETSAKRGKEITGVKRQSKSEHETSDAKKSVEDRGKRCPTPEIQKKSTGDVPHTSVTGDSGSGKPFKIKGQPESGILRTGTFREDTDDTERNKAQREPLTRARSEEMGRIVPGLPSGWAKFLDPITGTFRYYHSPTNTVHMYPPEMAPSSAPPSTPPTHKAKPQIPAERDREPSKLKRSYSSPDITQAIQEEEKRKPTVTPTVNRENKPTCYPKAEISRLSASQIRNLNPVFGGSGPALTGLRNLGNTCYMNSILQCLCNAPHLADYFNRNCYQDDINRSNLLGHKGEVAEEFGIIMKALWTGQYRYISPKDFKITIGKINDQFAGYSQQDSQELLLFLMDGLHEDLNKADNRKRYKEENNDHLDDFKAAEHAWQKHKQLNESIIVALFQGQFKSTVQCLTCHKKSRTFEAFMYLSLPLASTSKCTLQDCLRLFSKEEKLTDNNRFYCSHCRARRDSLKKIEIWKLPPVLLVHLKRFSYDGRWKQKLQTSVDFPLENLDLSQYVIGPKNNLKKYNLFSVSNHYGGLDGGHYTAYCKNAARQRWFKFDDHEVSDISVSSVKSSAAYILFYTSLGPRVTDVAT
Source text: The cDNA encoding USP8 was obtained by PCR amplification from placenta mRNA. USP8 cDNA was subcloned by PCR into a baculovirus expression vector (pFastBac-HT; Invitrogen). A cDNA encoding a mutated USP8 was generated by mutagenic PCR. The corresponding protein encodes a cysteine to alanine substitution at residue 786. The sequences were ascertained by sequencing of the entire open reading frame. Bacmids encoding […] were generated following. DH10bac transposition. The corresponding bacmids were transfected into insect cells (Sf9). Viruses were recovered from culture supernatant and amplified twice. Insect cells (Sf9 or High Five; Invitrogen) were infected for 72 hours. Total cell lysates were harvested and lyzed in lysis buffer (Tris HCl 50 mM pH7.6; 0.75% NP40; 500 mM NaCl; 10% glycerol; 1 mM DTT; 10 mM imidazole; Protease Inhibitor Cocktail; AEBSF 20 μg.ml^−1; Aprotinin 10 μg.ml^−1). Proteins were affinity purified on metal affinity resins (Talon Metal affinity resin; BD Biosciences). Bound materials were extensively washed in wash buffer (50 mM Sodium Phosphate pH 7.0; 300 mM NaCl; 10 mM imidazole; 0.5% Triton X-100; 10% glycerol) and eluted from the resin in 250 mM imidazole-containing wash buffer. Proteins were dialyzed in dialysis buffer (Tris HCl pH 7.6 20 mM; NaCl 200 mM; DTT 1 mM; EDTA 1 mM; 10% Glycerol). Proteins purifications were analyzed on 4-12% NuPAGE (Invitrogen).
USP8 was diluted in USP buffer (50 mM Tris HCl; 0.5 mM EDTA; 5 mM DTT; 0.01% Triton X-100; Bovine Serum Albumin 0.05 mg.ml^−1 pH8.8). Compounds stocks (100 mM) were stored at −20° C. in DMSO.
Reactions were performed as duplicates in Black LJL 96 well plates (HE microplates; Molecular Devices; 20 μl final reaction volume). The substrate concentration for USP8 was 400 nM Ub-AMC (Boston Biochem). The concentrations of the enzyme (USP8) in specificity assays was 630 pM. The concentrations were determined in order to perform specificity assays under initial velocities at fixed substrate concentration. Compounds were pre-incubated with enzymes for 30 minutes at 25° C. Reactions were initiated by addition of substrate to the plates containing the enzymes (+/−compounds) diluted in assay buffer. Reactions were incubated for 60 minutes at 37° C. Reactions were stopped by adding acetic acid (100 mM final). Readings were performed on a Pherastar Fluorescent Reader (BMG). λ Emission 380 nm; λ Excitation=460 nm. Data (mean values +/−standard deviation) were analyzed as % of control (no compound) and plotted as percentage versus the Log of the compound concentration using GraphPad (Prism). Data were fitted to a sigmoidal model (variable slope).

Row | Structure (SMILES) | IC50 (Uch-L3) | IC50 (USP8)
1 | C=CCON=C1c2ccccc2-c2nc3nnc(C)n3nc21 (mixture of isomers) [5c, 1-Methyl-2,3,4,10,10a-pentaaza-cyclopenta[b]fluoren-9-one O-allyl-oxime] | 51 µM | 47.7 µM
2 | C=CCON=C1c2ccccc2-c2nc3nnc(CCCC)n3nc21 (mixture of isomers) [5e, 1-Butyl-2,3,4,110,10a-pentaaza-cyclopenta[b]fluoren-9-one O-allyl-oxime] | 89 µM | 35 µM
